Measurements reported in US10035766B2, “Compositions for preventing and/or treating lysosomal storage disorders” (Amicus Therapeutics, Inc., priority 2009, dated 2018).
Structures can show the parent of a compound that is named as a salt. Where two headings read alike, the source gives them in different places. Each block holds one compound with its values, some of them ahead of it.

Columns and labels:
GCase = target: T1, GCase (Homo sapiens, UniProt P04062); assay: GCase activity enhancement (EC50, Emax) of Table 2B; assay type: cell-based; conditions: for GCase activity enhancement compared to reference compound IFG-tartrate: same maximum level as IFG-tartrate at much lower concentration
T1 sequence (P04062 40-536): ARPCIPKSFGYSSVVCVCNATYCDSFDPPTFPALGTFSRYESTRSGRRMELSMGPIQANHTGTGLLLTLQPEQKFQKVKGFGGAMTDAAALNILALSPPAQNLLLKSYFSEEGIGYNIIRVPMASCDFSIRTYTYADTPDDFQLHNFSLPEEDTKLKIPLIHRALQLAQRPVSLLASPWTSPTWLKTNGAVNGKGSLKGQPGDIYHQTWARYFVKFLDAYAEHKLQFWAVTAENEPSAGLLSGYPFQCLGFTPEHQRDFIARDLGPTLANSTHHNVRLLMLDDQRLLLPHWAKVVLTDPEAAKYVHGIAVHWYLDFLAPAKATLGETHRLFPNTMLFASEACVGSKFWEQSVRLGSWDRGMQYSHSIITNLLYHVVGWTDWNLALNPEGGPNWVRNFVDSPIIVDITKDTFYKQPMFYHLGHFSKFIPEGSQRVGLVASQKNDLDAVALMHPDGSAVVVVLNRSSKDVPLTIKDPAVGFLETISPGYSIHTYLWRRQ

[1] = GCase enhancement in brain and spleen after oral dosing over 2 weeks; assay type: in vivo, mice; conditions: male, C57BL/6, mouse, brain homogenate as diluted in the GCase assay, po, brain, read-out: Compound concentration in GCase assay
Description: The ability of orally administered test compounds ((3R,4R,5S)-5-(difluoromethyl)piperidine-3,4-diol, (3R,4R,5S)-5-(1-fluoroethyl)piperidine-3,4-diol, (3R,4R,5S)-5-((R)-1-fluoropropyl)piperidine-3,4-diol hydrochloride, or (3R,4R,5S)-5-benzylpiperidine-3,4-diol) to elevate GCase levels was assessed in mice. For this purpose, 8-week old wild-type male mice (C57BL/6) were administered a single p.o. (gavage) dose of a compound of the present invention (i.e., (3R,4R,5S)-5-(difluoromethyl)piperidine-3,4-diol, (3R,4R,5S)-5-(1-fluoroethyl)piperidine-3,4-diol, (3R,4R,5S)-5-((R)-1-fluoropropyl)piperidine-3,4-diol hydrochloride, or (3R,4R,5S)-5-benzylpiperidine-3,4-diol). The dosing solutions were prepared in water. Compounds were administered over 2 weeks as follows: week 1, Mon-Fri (On), Sat-Sun (Off); week 2, Mon-Thu (On); necropsy on Friday. Thus, a total of 9 doses (dosing solutions prepared fresh every day) were given to each mouse, with a 24-hour washout between the last dose and necropsy.
Plasma was collected by spinning blood at 2700 g for 10 minutes at 4° C. Liver, spleen, lung, and brain tissues were removed, washed in cold PBS, blotted dry, flash frozen on dry ice, and stored at −80° C. until analysis. GCase levels were measured by homogenizing approximately 50 mg tissue in 500 μL McIlvane (MI) buffer (100 mM sodium citrate, 200 mM sodium phosphate dibasic, 0.25% sodium taurocholate, and 0.1% Triton X-100, pH 5.2) at pH 5.2 for 3-5 seconds on ice with a micro homogenizer. Homogenates were then incubated at room temperature without and with 2.5 mM conduritol-B-epoxide (CBE) for 30 min. Finally, 3.7 mM 4-methylumbeliferryl-β-glucoside (4-MUG) substrate was added and incubated at 37° C. for 60 min. […] Fluorescence was measured on a plate reader for 1 sec/well using 355 nm excitation and 460 nm emission. Total protein was determined in lysates using the MicroBCA kit according to the manufacturer's instructions. A 4-methylumbelliferone (4-MU) standard curve ranging from 1.0 nM to 50 μM was run in parallel for conversion of raw fluorescence data to absolute GCase activity (in the presence and absence of CBE) and expressed as nanomoles of 4-MU released per milligram of protein per hour (nmol/mg protein/hr). GCase levels and protein levels were calculated using Microsoft Excel (Redmond, Wash.) and GraphPad Prism version 4.02.

Rat pharmacokinetics = assay type: in vivo, rats; conditions: for AUC(0-t): AUC0-24 hr
Description: Pharmacokinetic (PK) data was obtained in rats to assess the bioavailability of test compound. In particular, the following PK parameters were calculated: bioavailability as measured by area under the Concentration/Time curve (AUC), fraction of dose available (% F; further defined below), clearance (CL), volume of distribution (Vd), and half-life (t½). […] Three rats were used per dosing group. Blood was collected over a 24-hr period. The time points for blood collection after intravenous administration were: 0, 2.5, 5, 10, 15, 30, 45 min, 1, 2, 4, 8, 12, and 24 hrs; time points for blood collection after p.o. administrations were: 0, 5, 15, 30, 45 min, 1, 2, 3, 4, 8, 12, and 24 hrs. Plasma samples were analyzed for compound levels by LC-MS/MS at PPD. Raw data was analyzed by non-compartmental analysis in Win-nonLin to calculate VD, % F, CL, and t1/2.

[2] = male, Sprague-Dawley, plasma, iv, 3 mg/kg, IV 3 mg/kg free base

concentration at 24 h ([1]; 10 mg/kg, 10 mg/kg FBE p.o.): 0.2 nM
dose proportionality (Rat pharmacokinetics): dose proportionality
Vd (Rat pharmacokinetics; [2]): 9.77 ± 1.55 L/kg
clearance (Rat pharmacokinetics; [2]): 45.1 mL/min/kg
AUC(0-t) (Rat pharmacokinetics; [2]): 1420 ± 188 ng·h/mL
Cmax (Rat pharmacokinetics; male, Sprague-Dawley, plasma, iv, 3 mg/kg, IV 3 mg/kg free base, read-out: Cmax): 2330 ± 373 ng/mL
half-life (Rat pharmacokinetics; male, Sprague-Dawley, plasma, iv, 3 mg/kg, IV 3 mg/kg free base, read-out: t1/2 (converted)): 2.6 ± 0.64 h
AUC(0-t) (Rat pharmacokinetics; male, Sprague-Dawley, plasma, po, 10 mg/kg, PO 10 mg/kg free base): 7100 ± 606 ng·h/mL
half-life (Rat pharmacokinetics; male, Sprague-Dawley, plasma, po, 10 mg/kg, PO 10 mg/kg free base, read-out: t1/2 (converted)): 2.8 ± 0.5 h
AUC(0-t) (Rat pharmacokinetics; male, Sprague-Dawley, plasma, po, 30 mg/kg, PO 30 mg/kg free base): 21700 ± 1710 ng·h/mL
Cmax (Rat pharmacokinetics; male, Sprague-Dawley, plasma, po, 30 mg/kg, PO 30 mg/kg free base, read-out: Cmax): 6920 ± 451 ng/mL
half-life (Rat pharmacokinetics; male, Sprague-Dawley, plasma, po, 30 mg/kg, PO 30 mg/kg free base, read-out: t1/2 (converted)): 2.7 ± 0.12 h
AUC(0-t) (Rat pharmacokinetics; male, Sprague-Dawley, plasma, po, 100 mg/kg, PO 100 mg/kg free base): 59500 ± 1000 ng·h/mL
Cmax (Rat pharmacokinetics; male, Sprague-Dawley, plasma, po, 100 mg/kg, PO 100 mg/kg free base, read-out: Cmax): 19400 ± 3030 ng/mL
half-life (Rat pharmacokinetics; male, Sprague-Dawley, plasma, po, 100 mg/kg, PO 100 mg/kg free base, read-out: t1/2 (converted)): 2.5 ± 0.19 h
bioavailability (Rat pharmacokinetics; male, Sprague-Dawley, plasma, po, approximately): 50 to 100%
half-life (Rat pharmacokinetics; male, Sprague-Dawley, plasma, read-out: half-life): 1 to 4 h
SMILES: CC(F)[C@H]1CNC[C@@H](O)[C@@H]1O (single isomer, unassigned)
GCase activity enhancement compared to reference compound IFG-tartrate (GCase): concentration-dependent increase in GCase activity
pharmacokinetic profile (Rat pharmacokinetics): favorable pharmacokinetic profiles for drug development
volume of distribution (Rat pharmacokinetics): suggesting adequate penetration into peripheral tissues

Emax (GCase): 84 ± 4.1%
concentration at 24 h ([1]; 100 mg/kg, 100 mg/kg FBE p.o.): 0.1 nM
SMILES: CC[C@@H](F)[C@H]1CNC[C@@H](O)[C@@H]1O.Cl [(3R,4R,5S)-5-((R)-1-fluoropropyl)-piperidine-3,4-diol hydrochloride]
GCase activity enhancement compared to reference compound IFG-tartrate (GCase): concentration-dependent increase in GCase activity

Emax (GCase): 98 ± 4.5%
dose proportionality (Rat pharmacokinetics): dose proportionality
SMILES: O[C@@H]1[C@@H](Cc2ccccc2)CNC[C@H]1O [(3R,4R,5S)-5-benzyl-piperidine-3,4-diol]
GCase activity enhancement compared to reference compound IFG-tartrate (GCase): concentration-dependent increase in GCase activity
pharmacokinetic profile (Rat pharmacokinetics): favorable pharmacokinetic profiles for drug development
volume of distribution (Rat pharmacokinetics): suggesting adequate penetration into peripheral tissues

SMILES: O[C@H]1[C@H](O)CNC[C@@H]1C(F)F [Compound 6, (3R,4R,5S)-5-(Difluoromethyl)piperdine 3,4-diol Hydrochloride]
Emax (GCase): 106 ± 8.7%
GCase activity enhancement compared to reference compound IFG-tartrate (GCase): concentration-dependent increase in GCase activity
concentration at 24 h ([1]; 10 mg/kg, 10 mg/kg FBE p.o.): 0.2 nM
concentration at 24 h ([1]; 100 mg/kg, 100 mg/kg FBE p.o.): 1 nM
dose proportionality (Rat pharmacokinetics): dose proportionality
pharmacokinetic profile (Rat pharmacokinetics): favorable pharmacokinetic profiles for drug development
volume of distribution (Rat pharmacokinetics): suggesting adequate penetration into peripheral tissues
CL (Rat pharmacokinetics; IV 3 mg/kg free base): 25.92 mL/min/kg
Cmax (Rat pharmacokinetics; IV 3 mg/kg free base): 2323 ng/mL
VD (Rat pharmacokinetics; IV 3 mg/kg free base): 2.612 L/kg
% F (Rat pharmacokinetics; PO 10 mg/kg free base): 106%
Cmax (Rat pharmacokinetics; PO 10 mg/kg free base): 3363 ng/mL
t1/2 (Rat pharmacokinetics; PO 10 mg/kg free base): 2.58 h
% F (Rat pharmacokinetics; PO 30 mg/kg free base): 101%
Cmax (Rat pharmacokinetics; PO 30 mg/kg free base): 10037 ng/mL
t1/2 (Rat pharmacokinetics; PO 30 mg/kg free base): 2.75 h
% F (Rat pharmacokinetics; PO 100 mg/kg free base): 121%
Cmax (Rat pharmacokinetics; PO 100 mg/kg free base): 33200 ng/mL
t1/2 (Rat pharmacokinetics; PO 100 mg/kg free base): 2.41 h
